Laboratory results taken from patent US20210196720A1 (UROVANT SCIENCES GMBH, priority 2018, published 2021).
Read-outs that look alike come from different tables or passages of the source.

Legend:
[1] = Human plasma protein binding; format: in vitro ADME
[2] = Multiple rising dose Phase 1 PK, healthy subjects, day 14 (young males unless stated); format: in vivo, human
Excerpt: The steady state AUC geometric mean accumulation ratios were ˜2 in young male subjects and ˜2.8 in elderly subjects (male and female).
Although exposures were similar in middle-aged males when compared to young males, plasma concentrations were higher in elderly compared to middle-aged and young subjects. […] Furthermore, the steady state AUC geometric mean accumulation ratios were ˜2 in young males and ˜2.8 in the elderly.

O=C(Nc1ccc(C[C@@H]2CC[C@H]([C@H](O)c3ccccc3)N2)cc1)[C@@H]1CCc2nccc(=O)n21 [Vibegron, (6S)-N-[4-[[(2S,5R)-5-[(R)-hydroxy(phenyl)methyl]pyrrolidin-2-yl]methyl]phenyl]-4-oxo-7,8-dihydro-6H-pyrrolo[1,2-a]pyrimidine-6-carboxamide]
bound to human plasma proteins [1]: approximately 49% | unbound in human plasma [1]: 49% | Ctrough ([2]; 25 mg QD): 5.07 ± 0.711 ng/mL | Ctrough ([2]; 50 mg QD): 15.2 ± 5.07 ng/mL | Ctrough ([2]; 50 mg QD, Japanese): 16.5 ± 6.05 ng/mL | Ctrough ([2]; 100 mg QD): 31.9 ± 11.5 ng/mL | steady state Cmax, elderly vs young males ([2]; 100 mg QD): ~1.3 fold | Ctrough ([2]; 100 mg QD, elderly male and female): 54.2 ± 15.3 ng/mL | fe0-24 hr, ss ([2]; 100 mg, elderly): ~17% | Cmax ([2]; 150 mg QD, middle-aged female, fasted): 346 ± 139 ng/mL | fe0-24 hr, ss ([2]; 100 and 150 mg, young males): ~14% | steady state exposure (AUC0-24) higher, elderly Japanese vs non-Japanese ([2]; Day 14): 35% | AUC(0-t) ([2]; both sexes, human, plasma, oral, 100 mg, 100 mg QD, elderly Japanese, read-out: AUC0-24): 2920 ± 693 ng·h/mL | half-life ([2]; both sexes, human, plasma, oral, 100 mg, 100 mg QD, elderly Japanese, read-out: t1/2 (converted)): 75.1 ± 3.9 h | AUC(0-t) ([2]; both sexes, human, plasma, oral, 100 mg, 100 mg QD, elderly male and female, read-out: AUC0-24): 2230 ± 671 ng·h/mL | Cmax ([2]; both sexes, human, plasma, oral, 100 mg, 100 mg QD, elderly male and female, read-out: Cmax): 224 ± 92 ng/mL | half-life ([2]; both sexes, human, plasma, oral, 100 mg, 100 mg QD, elderly male and female, read-out: t1/2 (converted)): 88.4 ± 10.7 h | CL renal ([2]; both sexes, human, urine, oral, 100 mg, elderly male and female, read-out: renal clearance CLR at steady state): 127 mL/min | Cmax higher than healthy young males ([2]; elderly and females): 50-70% | AUC(0-t) ([2]; female, human, plasma, oral, 100 mg, elderly females, read-out: steady state AUC0-24hr): 2620 ng·h/mL | Cmax ([2]; female, human, plasma, oral, 100 mg, elderly females, read-out: steady state Cmax): 278 ng/mL | AUC(0-t) ([2]; female, human, plasma, oral, 150 mg, 150 mg QD, middle-aged female, fasted, read-out: AUC0-24): 3180 ± 925 ng·h/mL | Cmax ([2]; female, human, plasma, oral, 150 mg, 150 mg QD, middle-aged female, fasted, read-out: Cmax): 246 ± 139 ng/mL | half-life ([2]; female, human, plasma, oral, 150 mg, 150 mg QD, middle-aged female, read-out: t1/2 (converted)): 83.1 ± 17.2 h | Cmax higher, elderly Japanese vs non-Japanese ([2]; human, in vivo): 82% | steady state AUC, middle-aged females vs middle-aged males ([2]; human, in vivo): ~1.5 fold | steady state exposure higher, Japanese vs non-Japanese young males ([2]; human, in vivo): ~30% | half-life ([2]; human, plasma, oral, young and elderly subjects, read-out: terminal t1/2): 59 to 94 h | AUC(0-t) ([2]; male, human, plasma, oral, 25 mg, 25 mg QD, read-out: AUC0-24): 164 ng·h/mL | Cmax ([2]; male, human, plasma, oral, 25 mg, 25 mg QD, read-out: Cmax): 15.6 ± 6.93 ng/mL | half-life ([2]; male, human, plasma, oral, 25 mg, 25 mg QD, read-out: t1/2 (converted)): 94 ± 9.6 h | AUC(0-t) ([2]; male, human, plasma, oral, 50 mg, 50 mg QD, Japanese, read-out: AUC0-24): 613 ± 296 ng·h/mL | Cmax ([2]; male, human, plasma, oral, 50 mg, 50 mg QD, Japanese, read-out: Cmax): 56.9 ± 34.2 ng/mL | half-life ([2]; male, human, plasma, oral, 50 mg, 50 mg QD, Japanese, read-out: t1/2 (converted)): 69.4 ± 6.6 h | AUC(0-t) ([2]; male, human, plasma, oral, 50 mg, 50 mg QD, read-out: AUC0-24): 507 ± 176 ng·h/mL | Cmax ([2]; male, human, plasma, oral, 50 mg, 50 mg QD, read-out: Cmax): 41.5 ± 12.3 ng/mL | half-life ([2]; male, human, plasma, oral, 50 mg, 50 mg QD, read-out: t1/2 (converted)): 77.2 ± 8.9 h | AUC(0-t) ([2]; male, human, plasma, oral, 100 mg, 100 mg QD, Japanese, read-out: AUC0-24): 1710 ± 542 ng·h/mL | Cmax ([2]; male, human, plasma, oral, 100 mg, 100 mg QD, Japanese, read-out: Cmax): 180 ± 111 ng/mL | half-life ([2]; male, human, plasma, oral, 100 mg, 100 mg QD, Japanese, read-out: t1/2 (converted)): 56.8 ± 19.2 h | AUC(0-t) ([2]; male, human, plasma, oral, 100 mg, 100 mg QD, read-out: AUC0-24): 1280 ± 529 ng·h/mL | Cmax ([2]; male, human, plasma, oral, 100 mg, 100 mg QD, read-out: Cmax): 169 ± 80.9 ng/mL | half-life ([2]; male, human, plasma, oral, 100 mg, 100 mg QD, read-out: t1/2 (converted)): 79.7 ± 11.5 h | half-life ([2]; male, human, plasma, oral, 150 mg, 150 mg QD, middle-aged male, after 28 days, read-out: t1/2 (converted)): 72.7 h | AUC(0-t) ([2]; male, human, plasma, oral, 150 mg, 150 mg QD, middle-aged male, read-out: AUC0-24): 2170 ± 452 ng·h/mL | Cmax ([2]; male, human, plasma, oral, 150 mg, 150 mg QD, middle-aged male, read-out: Cmax): 293 ± 67.1 ng/mL | AUC(0-t) ([2]; male, human, plasma, oral, 150 mg, 150 mg QD, read-out: AUC0-24): 2280 ± 1140 ng·h/mL | Cmax ([2]; male, human, plasma, oral, 150 mg, 150 mg QD, read-out: Cmax): 305 ± 215 ng/mL | half-life ([2]; male, human, plasma, oral, 150 mg, 150 mg QD, read-out: t1/2 (converted)): 79.2 ± 9.2 h | AUC(0-t) ([2]; male, human, plasma, oral, 200 mg, 200 mg QD, Japanese, read-out: AUC0-24): 4370 ± 618 ng·h/mL | Cmax ([2]; male, human, plasma, oral, 200 mg, 200 mg QD, Japanese, read-out: Cmax): 631 ± 154 ng/mL | half-life ([2]; male, human, plasma, oral, 200 mg, 200 mg QD, Japanese, read-out: t1/2 (converted)): 59.5 ± 1.9 h | AUC(0-t) ([2]; male, human, plasma, oral, 200 mg, 200 mg QD, read-out: AUC0-24): 3200 ± 1120 ng·h/mL | Cmax ([2]; male, human, plasma, oral, 200 mg, 200 mg QD, read-out: Cmax): 313 ± 168 ng/mL | half-life ([2]; male, human, plasma, oral, 200 mg, 200 mg QD, read-out: t1/2 (converted)): 64.7 ± 6.5 h | AUC(0-t) ([2]; male, human, plasma, oral, 300 mg, 300 mg QD, read-out: AUC0-24): 6980 ± 1040 ng·h/mL | Cmax ([2]; male, human, plasma, oral, 300 mg, 300 mg QD, read-out: Cmax): 733 ± 164 ng/mL | half-life ([2]; male, human, plasma, oral, 300 mg, 300 mg QD, read-out: t1/2 (converted)): 61.7 ± 7.3 h
